Test system: Drosophila suzukii
Experiment: Field test 1: unknown release rate of 2-pentylfuran, SWD oviposition on field raspberries
Format: in vivo
Settings: 0.5 ml 50% 2-pentylfuran in mineral oil in vial, 3 days, N=16
Experimental: Field Test 1: Effect of Unknown Release Rate of 2-Pentylfuran on SWD Oviposition. The objective of this field test was to confirm the repellent activity of 2-pentylfuran under field conditions. This experiment was conducted using a mixed variety planting of fall-bearing raspberries (primocane raspberries) at Cornell AgriTech in Geneva, N.Y. where we randomly assigned 32 fruiting clusters to one of two treatments: 1.5 ml centrifuge vial with 3 mm hole in lid and containing 0.5 ml 50% 2-pentylfuran in 1:1 ratio with mineral oil or vial with mineral oil only (similar to Wallingford et al. 2016a). After three days we collected ripe raspberries from each cluster and monitored SWD emergence over the 2 weeks in the laboratory (25 C, 55% RH, 16:8 L:D).
Statistical Analyses: Trap catch data from multiple-choice assay and two-choice assay were analyzed in a randomized block design with block as a random factor and different EAD-active compounds as a fixed factor using Poisson distribution with log link function and maximum likelihood estimation (Proc Glimmix, SAS Institute, SAS/STAT 9.2 User's Guide, Second Edition, 2009, SAS Institute Inc., Cary, N.C.). […]

Compound: CCCCCc1ccco1 [2-pentylfuran]
- reduction of number of eggs per raspberry fruit: 30%
